Where two headings read alike, the source gives them in different places.
Columns and labels:
CLK1 = CLK1 (Homo sapiens (Human), UniProt P49759); test: biochemical; conditions: read-out: CLK1 (% Inh.), % inhibition at 3 μM
[1] = test system: non small cell lung cancer (NSCLC) cell lines; test: cells
CLK2 = CLK2 (Homo sapiens (Human), UniProt P49760); test: biochemical; conditions: read-out: CLK2 (% Inh.), % inhibition at 3 μM
breast cancer cell lines = test: cells; conditions: for IC50: read-out: Growth Inhibition IC50; for GI50: read-out: Growth inhibition GI50
[2] = Homo sapiens, MDA-MB-175-VII, 96 h

CLK2, sequence (P49760 whole entry): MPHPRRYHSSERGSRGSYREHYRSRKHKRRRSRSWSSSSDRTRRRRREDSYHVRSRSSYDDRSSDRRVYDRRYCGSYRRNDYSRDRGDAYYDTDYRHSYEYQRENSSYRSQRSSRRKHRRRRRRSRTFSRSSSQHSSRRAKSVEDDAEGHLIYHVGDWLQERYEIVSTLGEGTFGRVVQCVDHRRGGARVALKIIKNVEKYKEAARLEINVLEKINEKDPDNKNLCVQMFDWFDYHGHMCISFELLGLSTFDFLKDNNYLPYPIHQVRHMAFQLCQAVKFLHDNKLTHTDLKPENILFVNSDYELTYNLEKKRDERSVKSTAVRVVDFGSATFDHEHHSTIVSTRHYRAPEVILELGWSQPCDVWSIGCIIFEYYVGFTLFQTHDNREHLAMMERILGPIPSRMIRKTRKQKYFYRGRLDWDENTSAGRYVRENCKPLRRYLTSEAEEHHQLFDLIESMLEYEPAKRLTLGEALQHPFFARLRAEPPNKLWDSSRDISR
CLK1, sequence (P49759 whole entry): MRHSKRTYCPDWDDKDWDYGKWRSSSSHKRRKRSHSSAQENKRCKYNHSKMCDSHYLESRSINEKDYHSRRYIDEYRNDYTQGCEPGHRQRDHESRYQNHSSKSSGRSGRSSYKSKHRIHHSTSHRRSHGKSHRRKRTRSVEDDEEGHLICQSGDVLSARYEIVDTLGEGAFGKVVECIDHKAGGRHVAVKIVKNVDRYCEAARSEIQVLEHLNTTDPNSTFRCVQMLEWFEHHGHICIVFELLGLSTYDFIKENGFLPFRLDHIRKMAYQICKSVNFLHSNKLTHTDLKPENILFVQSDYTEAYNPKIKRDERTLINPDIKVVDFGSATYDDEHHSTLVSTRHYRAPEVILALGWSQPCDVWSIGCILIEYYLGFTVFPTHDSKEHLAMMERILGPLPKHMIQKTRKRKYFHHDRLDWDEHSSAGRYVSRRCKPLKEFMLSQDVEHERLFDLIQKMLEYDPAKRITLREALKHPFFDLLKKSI

inhibition at 3 µM (CLK1): 91% | IC50 ([1]; Homo sapiens, A549, 72 h, read-out: Average IC50 (μM)): 0.05 µM | IC50 ([1]; Homo sapiens, HOP-62, 72 h, read-out: Average IC50 (μM)): 0.05 µM | IC50 ([1]; Homo sapiens, HOP-92, 72 h, read-out: Average IC50 (μM)): 1.27 µM | IC50 ([1]; Homo sapiens, NCI-H441, 72 h, read-out: Average IC50 (μM)): 2.1 µM | IC50 ([1]; Homo sapiens, NCI-H460, 72 h, read-out: Average IC50 (μM)): 0.04 µM | IC50 ([1]; Homo sapiens, NCI-H1299, 72 h, read-out: Average IC50 (μM)): 0.36 µM | IC50 ([1]; Homo sapiens, NCI-H1437, 72 h, read-out: Average IC50 (μM)): 0.39 µM | IC50 ([1]; Homo sapiens, NCI-H1563, 72 h, read-out: Average IC50 (μM)): 1.77 µM | IC50 ([1]; Homo sapiens, NCI-H1650, 72 h, read-out: Average IC50 (μM)): 0.62 µM | IC50 ([1]; Homo sapiens, NCI-H1734, 72 h, read-out: Average IC50 (μM)): 0.91 µM | IC50 ([1]; Homo sapiens, NCI-H1838, 72 h, read-out: Average IC50 (μM)): 16.1 µM | IC50 ([1]; Homo sapiens, NCI-H2228, 72 h, read-out: Average IC50 (μM)): 1.58 µM | IC50 ([1]; Homo sapiens, NCI-H2291, 72 h, read-out: Average IC50 (μM)): 16.3 µM | IC50 ([1]; Homo sapiens, SK-LU-1, 72 h, read-out: Average IC50 (μM)): 0.83 µM | IC50 ([1]; Homo sapiens, SW1573, 72 h, read-out: Average IC50 (μM)): 0.96 µM | IC50 ([1]; read-out: growth inhibition IC50 values): ≤ 2 µM | inhibition at 3 µM (CLK2): 104% | IC50 (breast cancer cell lines; EFM-192A, 96 h): 10000 nM | GI50 (breast cancer cell lines; EFM-192A, 96 h): 10000 nM | IC50 (breast cancer cell lines; HCC202, 96 h): 16000 nM | GI50 (breast cancer cell lines; HCC202, 96 h): 15000 nM | GI50 (breast cancer cell lines; HCC1500, 96 h): 53 nM | IC50 (breast cancer cell lines; Homo sapiens, AU565, 96 h): 1100 nM | GI50 (breast cancer cell lines; Homo sapiens, AU565, 96 h): 426 nM | IC50 (breast cancer cell lines; Homo sapiens, BT-20, 96 h): 608 nM | GI50 (breast cancer cell lines; Homo sapiens, BT-20, 96 h): 289 nM | IC50 (breast cancer cell lines; Homo sapiens, BT-474, 96 h): 16300 nM | GI50 (breast cancer cell lines; Homo sapiens, BT-474, 96 h): 6020 nM | IC50 (breast cancer cell lines; Homo sapiens, BT-483, 96 h): 10000 nM | GI50 (breast cancer cell lines; Homo sapiens, BT-483, 96 h): 704 nM | IC50 (breast cancer cell lines; Homo sapiens, BT-549, 96 h): 180 nM | GI50 (breast cancer cell lines; Homo sapiens, BT-549, 96 h): 85 nM | IC50 (breast cancer cell lines; Homo sapiens, CAL-51, 96 h): 9 nM | GI50 (breast cancer cell lines; Homo sapiens, CAL-51, 96 h): 8 nM | IC50 (breast cancer cell lines; Homo sapiens, CAL-85-1, 96 h): 76 nM | GI50 (breast cancer cell lines; Homo sapiens, CAL-85-1, 96 h): 25 nM | IC50 (breast cancer cell lines; Homo sapiens, CAL-120, 96 h): 10000 nM | GI50 (breast cancer cell lines; Homo sapiens, CAL-120, 96 h): 10000 nM | IC50 (breast cancer cell lines; Homo sapiens, CAMA-1, 96 h): 10700 nM | GI50 (breast cancer cell lines; Homo sapiens, CAMA-1, 96 h): 4900 nM | IC50 (breast cancer cell lines; Homo sapiens, DU-4475, 96 h): 560 nM | GI50 (breast cancer cell lines; Homo sapiens, DU-4475, 96 h): 82 nM | IC50 (breast cancer cell lines; Homo sapiens, EFM-19, 96 h): 730 nM | GI50 (breast cancer cell lines; Homo sapiens, EFM-19, 96 h): 67 nM | IC50 (breast cancer cell lines; Homo sapiens, HCC38, 96 h): 47 nM | GI50 (breast cancer cell lines; Homo sapiens, HCC38, 96 h): 17 nM | IC50 (breast cancer cell lines; Homo sapiens, HCC1143, 96 h): 17500 nM | GI50 (breast cancer cell lines; Homo sapiens, HCC1143, 96 h): 286 nM | IC50 (breast cancer cell lines; Homo sapiens, HCC1187, 96 h): 881 nM | GI50 (breast cancer cell lines; Homo sapiens, HCC1187, 96 h): 470 nM | IC50 (breast cancer cell lines; Homo sapiens, HCC1428, 96 h): 4970 nM | GI50 (breast cancer cell lines; Homo sapiens, HCC1428, 96 h): 1090 nM | IC50 (breast cancer cell lines; Homo sapiens, HCC1569, 96 h): 5430 nM | GI50 (breast cancer cell lines; Homo sapiens, HCC1569, 96 h): 73 nM | IC50 (breast cancer cell lines; Homo sapiens, HCC1937, 96 h): 10000 nM | GI50 (breast cancer cell lines; Homo sapiens, HCC1937, 96 h): 7460 nM | IC50 (breast cancer cell lines; Homo sapiens, HCC1954, 96 h): 482 nM | GI50 (breast cancer cell lines; Homo sapiens, HCC1954, 96 h): 131 nM | IC50 (breast cancer cell lines; Homo sapiens, HCC2157, 96 h): 120 nM | GI50 (breast cancer cell lines; Homo sapiens, HCC2157, 96 h): 24 nM | IC50 (breast cancer cell lines; Homo sapiens, Hs-578T, 96 h): 183 nM | GI50 (breast cancer cell lines; Homo sapiens, Hs-578T, 96 h): 104 nM | IC50 (breast cancer cell lines; Homo sapiens, MCF7, 96 h): 170 nM | GI50 (breast cancer cell lines; Homo sapiens, MCF7, 96 h): 124 nM | IC50 (breast cancer cell lines; Homo sapiens, MCF-12A, 96 h): 3150 nM | GI50 (breast cancer cell lines; Homo sapiens, MCF-12A, 96 h): 486 nM | GI50 (breast cancer cell lines; Homo sapiens, MDA-MB-134-VI, 96 h): 874 nM | IC50 (breast cancer cell lines; Homo sapiens, MDA-MB-157, 96 h): 695 nM | GI50 (breast cancer cell lines; Homo sapiens, MDA-MB-157, 96 h): 225 nM | IC50 (breast cancer cell lines; [2]): 8500 nM | GI50 (breast cancer cell lines; [2]): 400 nM | IC50 (breast cancer cell lines; Homo sapiens, MDA-MB-231, 96 h): 38 nM | GI50 (breast cancer cell lines; Homo sapiens, MDA-MB-231, 96 h): 22 nM | IC50 (breast cancer cell lines; Homo sapiens, MDA-MB-361, 96 h): 18800 nM | GI50 (breast cancer cell lines; Homo sapiens, MDA-MB-361, 96 h): 5480 nM | IC50 (breast cancer cell lines; Homo sapiens, MDA-MB-415, 96 h): 13500 nM | GI50 (breast cancer cell lines; Homo sapiens, MDA-MB-415, 96 h): 11700 nM | IC50 (breast cancer cell lines; Homo sapiens, MDA-MB-436, 96 h): 2100 nM | GI50 (breast cancer cell lines; Homo sapiens, MDA-MB-436, 96 h): 1380 nM | IC50 (breast cancer cell lines; Homo sapiens, MDA-MB-453, 96 h): 2790 nM | GI50 (breast cancer cell lines; Homo sapiens, MDA-MB-453, 96 h): 799 nM | IC50 (breast cancer cell lines; Homo sapiens, MDA-MB-468, 96 h): 32 nM | GI50 (breast cancer cell lines; Homo sapiens, MDA-MB-468, 96 h): 27 nM | IC50 (breast cancer cell lines; Homo sapiens, SK-BR-3, 96 h): 3690 nM | GI50 (breast cancer cell lines; Homo sapiens, SK-BR-3, 96 h): 1180 nM | IC50 (breast cancer cell lines; Homo sapiens, T47D, 96 h): 418 nM | GI50 (breast cancer cell lines; Homo sapiens, T47D, 96 h): 162 nM | IC50 (breast cancer cell lines; Homo sapiens, UACC-812, 96 h): 1790 nM | GI50 (breast cancer cell lines; Homo sapiens, UACC-812, 96 h): 842 nM | IC50 (breast cancer cell lines; Homo sapiens, ZR-75-1, 96 h): 6390 nM | GI50 (breast cancer cell lines; Homo sapiens, ZR-75-1, 96 h): 1140 nM | IC50 (breast cancer cell lines; Homo sapiens, ZR-75-30, 96 h): 30000 nM | GI50 (breast cancer cell lines; Homo sapiens, ZR-75-30, 96 h): 11600 nM | IC50 (breast cancer cell lines; KPL-1, 96 h): 693 nM | GI50 (breast cancer cell lines; KPL-1, 96 h): 245 nM
SMILES: CNC(=O)c1ccc(Nc2nc(OC3CCCC3)c3c(-c4ccc(O)cc4)c[nH]c3n2)c(OC)c1 [Compound 3, 4-((4-(cyclopentyloxy)-5-(4-hydroxyphenyl)-7H-pyrrolo[2,3-d]pyrimidin-2-yl)amino)-3-methoxy-N-methylbenzamide]
IC50 (breast cancer cell lines; Homo sapiens, HCC70, 96 h): 1950 nM | GI50 (breast cancer cell lines; Homo sapiens, HCC70, 96 h): 442 nM | IC50 (breast cancer cell lines; Homo sapiens, MCF-10A, 96 h): 17400 nM | GI50 (breast cancer cell lines; Homo sapiens, MCF-10A, 96 h): 426 nM
